Measured values: publication PMC9399411, “Identification of solamargine as a cisplatin sensitizer through phenotypical screening in cisplatin-resistant NSCLC organoids” (Frontiers in Pharmacology, 2022)

Experiments:
[1] = molecular target: T1, SMO (smoothened) (Homo sapiens, UniProt Q99835); test: BODIPY-cyclopamine competitive displacement on fixed U2OS-Smo cells (fluorescence imaging), […] vismodegib; format: cell-based
T1 construct: human Smo protein stably overexpressed in U2OS cells

[2] = molecular target: T1, SMO (smoothened); test: BODIPY-cyclopamine competitive displacement on fixed U2OS-Smo cells (fluorescence imaging), […] solamargine; format: cell-based

T1 sequence (Q99835 28-787): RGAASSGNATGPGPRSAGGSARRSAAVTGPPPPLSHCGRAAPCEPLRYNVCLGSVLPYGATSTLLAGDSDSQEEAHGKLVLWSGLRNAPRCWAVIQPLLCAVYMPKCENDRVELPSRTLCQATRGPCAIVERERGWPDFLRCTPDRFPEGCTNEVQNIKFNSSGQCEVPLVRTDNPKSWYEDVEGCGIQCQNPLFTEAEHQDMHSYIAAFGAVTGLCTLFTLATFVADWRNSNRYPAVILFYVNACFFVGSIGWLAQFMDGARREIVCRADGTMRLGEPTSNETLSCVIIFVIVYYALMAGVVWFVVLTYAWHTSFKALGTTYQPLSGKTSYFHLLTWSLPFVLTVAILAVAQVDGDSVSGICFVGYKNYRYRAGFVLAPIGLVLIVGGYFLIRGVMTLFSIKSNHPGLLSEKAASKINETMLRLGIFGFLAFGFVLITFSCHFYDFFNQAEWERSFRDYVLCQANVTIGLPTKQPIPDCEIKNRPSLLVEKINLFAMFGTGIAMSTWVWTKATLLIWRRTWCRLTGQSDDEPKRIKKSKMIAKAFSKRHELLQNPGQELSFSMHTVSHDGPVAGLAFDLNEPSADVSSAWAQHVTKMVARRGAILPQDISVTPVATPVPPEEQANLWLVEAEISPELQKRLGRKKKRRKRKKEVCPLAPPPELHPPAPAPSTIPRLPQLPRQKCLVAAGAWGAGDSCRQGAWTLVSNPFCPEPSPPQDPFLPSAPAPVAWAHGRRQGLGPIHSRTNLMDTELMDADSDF

SMILES	BODIPY-cyclopamine competitive displacement on fixed U2OS-Smo cells (fluorescenc) [1]	BODIPY-cyclopamine competitive displacement on fixed U2OS-Smo cells (fluorescenc) [2]
CS(=O)(=O)c1ccc(C(=O)Nc2ccc(Cl)c(-c3ccccn3)c2)c(Cl)c1 [vismodegib]	vismodegib can directly bind to SMO and competitively remove BODIPY-cyclopamine from SMO	–
C[C@@H]1CC[C@@]2(NC1)O[C@H]1C[C@H]3[C@@H]4CC=C5C[C@@H](O[C@@H]6O[C@H](CO)[C@@H](O[C@@H]7O[C@@H](C)[C@H](O)[C@@H](O)[C@H]7O)[C@H](O)[C@H]6O[C@@H]6O[C@@H](C)[C@H](O)[C@@H](O)[C@H]6O)CC[C@]5(C)[C@H]4CC[C@]3(C)[C@H]1[C@@H]2C [Solamargine]	–	fluorescent signaling of BODIPY-cyclopamine wasalso suppressed by Solamargine (Figure 4C), suggesting the inhibitory binding of Solamargine to SMO
